Assay results published in patent publication US4401812A, “Anthracycline antibiotics” (Hoffmann-La Roche Inc., priority 1980, dated 1983).
In brackets after ≈: the same amount, converted by molar mass. Where two headings read alike, the source gives them in different places.

Key:
Sarcina lutea IAM1009 = experiment: in vitro MIC, agar streak method; assay type: cell-based; settings: Heart infusion agar
P388 leukaemia = experiment: Antitumor effect against P388 leukaemia in CDF1 mice; assay type: in vivo; settings: Mus musculus, read-out: Mean survival (T/C, %); for response vs control in vivo at 1.88 mg/kg: 1.88 mg/kg/day i.p.; for response vs control in vivo at 3.75 mg/kg: 3.75 mg/kg/day i.p.; for response vs control in vivo at 7.5 mg/kg: 7.5 mg/kg/day i.p.; for response vs control in vivo at 15 mg/kg: 15.0 mg/kg/day i.p.
Experimental: The anthracycline glycosides provided by the present invention were tested against P388 leukaemia in mice. When CDF1 mice are inoculated with 1×10^6 cells of P388 intraperitoneally and each of the antibiotics is administered intraperitoneally on days 1, 5 and 9, the survival time of the treated mice is prolonged as shown in Table 5 hereinafter.

[1] = system: Escherichia coli K-12 IAM-1264; experiment: in vitro MIC, agar streak method; assay type: cell-based
Description: (§1) | ^(1) Heart infusion agar

[2] = system: Pseudomonas aeruginosa IFO-12689; experiment: in vitro MIC, agar streak method; assay type: cell-based; settings: IFO12689, Heart infusion agar
Description: as §1

[3] = system: Micrococcus flavus ATCC-10240; experiment: in vitro MIC, agar streak method; assay type: cell-based
Description: as §1

[4] = system: Staphylococcus aureus 209P Stf; experiment: in vitro MIC, agar streak method; assay type: cell-based; settings: Heart infusion agar
Description: as §1

[5] = system: Escherichia coli NIHJ IFO-12734; experiment: in vitro MIC, agar streak method; assay type: cell-based
Description: as §1

[6] = system: Mycobacterium smegmatis IFO-13167; experiment: in vitro MIC, agar streak method; assay type: cell-based; settings: Mycolicibacterium smegmatis, IFO13167; Mycobacterium smegmatis IFO-13167; Heart infusion agar; read-out: MIC
Description: as §1

[7] = system: Bacillus subtilis IAM-1027; experiment: in vitro MIC, agar streak method; assay type: cell-based
Description: as §1

[8] = system: Candida tropicalis ATCC-13803; experiment: in vitro MIC, agar streak method; assay type: cell-based
Description: (§2) | ^(2) Sabouraud dextrose agar

[9] = system: Candida albicans ATCC-10231; experiment: in vitro MIC, agar streak method; assay type: cell-based
Description: as §2

in vivo = settings: mouse, ip, mice, single i.p. injection, judged 72 hours after, read-out: acute intraperitoneal LD50
Experimental: The acute intraperitoneal LD50 in mice judged 72 hours after a single injection of the antibiotics is about 90 mg/kg for auramycin C, auramycin D, sulfurmycin C and sulfurmycin D, 40~80 mg/kg for auramycin G and sulfurmycin G and 20~40 mg/kg for auramycin E and sulfurmycin E.

[10] = system: Staphylococcus aureus 209P IAM-1011; experiment: in vitro MIC, agar streak method; assay type: cell-based; settings: Heart infusion agar
Bacillus cereus Rol79B = experiment: in vitro MIC, agar streak method; assay type: cell-based; settings: Heart infusion agar
Description: as §1

[11] = system: Staphylococcus epidermidis IFO-12993; experiment: in vitro MIC, agar streak method; assay type: cell-based; settings: Staphylococcus epidermidis IFO-12993, Heart infusion agar
Description: as §1

[12] = Micrococcus luteus, IAM1009, Sarcina lutea IAM-1009, read-out: MIC
[13] = ip, days 1, 5 and 9, 1×10^6 P388 cells i.p., CDF1 mice
[14] = IAM1264, Escherichia coli K-12 IAM-1264, Heart infusion agar, read-out: MIC
[15] = IFO12734, Escherichia coli NIHJ IFO-12734, Heart infusion agar, read-out: MIC
[16] = IAM1027, Bacillus subtilis IAM-1027, Heart infusion agar, read-out: MIC
[17] = ATCC13803, Candida tropicalis ATCC-13803, Sabouraud dextrose agar, read-out: MIC
[18] = ATCC10231, Candida albicans ATCC-10231, Sabouraud dextrose agar, read-out: MIC
[19] = Micrococcus flavus, ATCC10240, Micrococcus flavus ATCC-10240, Heart infusion agar, read-out: MIC
[20] = Staphylococcus aureus, read-out: MIC

Structure (SMILES)	MIC (Sarcina lutea IAM1009; [12])	response vs control in vivo at 1.88 mg/kg (P388 leukaemia; [13])	response vs control in vivo at 3.75 mg/kg (P388 leukaemia; [13])	response vs control in vivo at 7.5 mg/kg (P388 leukaemia; [13])	response vs control in vivo at 15 mg/kg (P388 leukaemia; [13])	MIC [1, 14]	MIC [2]	MIC [4]	MIC [5, 15]	MIC [6]	MIC [7, 16]	MIC [8, 17]	MIC [9, 18]	LD50 at 72 h (in vivo)	MIC ([10]; read-out: MIC)	MIC [3, 19]	MIC [10, 20]	MIC (Bacillus cereus Rol79B; read-out: MIC)	MIC [11]	further results
COC(=O)C1c2cc3c(c(O)c2C(OC2CC(N(C)C)C(OC4CC(O)C(O)C(C)O4)C(C)O2)CC1(O)CC(C)=O)C(=O)c1c(O)cccc1C3=O (stereo not shown) [Sulfurmycin C]	6.25 µg/mL (≈ 8.59 µM)	131%	141%	138%	141%	> 50 µg/mL	> 50 µg/mL	6.25 µg/mL (≈ 8.59 µM)	> 50 µg/mL	3.13 µg/mL (≈ 4.3 µM)	12.5 µg/mL (≈ 17.2 µM)	> 50 µg/mL	> 50 µg/mL	~90 mg/kg	6.25 µg/mL (≈ 8.59 µM)					MIC ([3]; ATCC10240, Micrococcus flavus ATCC-10240, Heart infusion agar, read-out: MIC): 6.25 µg/mL (≈ 8.59 µM)
COC(=O)C1c2cc3c(c(O)c2C(OC2CC(N(C)C)C(O)C(C)O2)CC1(O)CC(C)=O)C(=O)c1c(O)cccc1C3=O (stereo not shown) [Sulfurmycin D]	25 µg/mL (≈ 41.8 µM)	106%	135%	128%	152%	> 50 µg/mL	> 50 µg/mL	25 µg/mL (≈ 41.8 µM)	> 50 µg/mL	6.25 µg/mL (≈ 10.5 µM)	12.5 µg/mL (≈ 20.9 µM)	> 50 µg/mL	> 50 µg/mL	~90 mg/kg		25 µg/mL (≈ 41.8 µM)	25 µg/mL (≈ 41.8 µM)			
COC(=O)C1c2cc3c(c(O)c2C(OC2CC(N(C)C)C(OC4CC(O)C(OC5CCC(O)C(C)O5)C(C)O4)C(C)O2)CC1(O)CC(C)=O)C(=O)c1c(O)cccc1C3=O (stereo not shown) [Sulfurmycin E]	3.12 µg/mL (≈ 3.71 µM)					> 50 µg/mL			> 50 µg/mL		3.12 µg/mL (≈ 3.71 µM)	> 50 µg/mL	> 50 µg/mL	20 to 40 mg/kg		3.12 µg/mL (≈ 3.71 µM)	3.12 µg/mL (≈ 3.71 µM)	0.39 µg/mL (≈ 0.463 µM)	1.56 µg/mL (≈ 1.85 µM)	response vs control in vivo at 1.5 mg/kg (P388 leukaemia; ip, 1.5 mg/kg/day i.p., days 1, 5 and 9, 1×10^6 P388 cells i.p., CDF1 mice): 133%; response vs control in vivo at 3 mg/kg (P388 leukaemia; ip, 3.0 mg/kg/day i.p., days 1, 5 and 9, 1×10^6 P388 cells i.p., CDF1 mice): 140%; response vs control in vivo at 6 mg/kg (P388 leukaemia; ip, 6.0 mg/kg/day i.p., days 1, 5 and 9, 1×10^6 P388 cells i.p., CDF1 mice): 150%; response vs control in vivo at 12 mg/kg (P388 leukaemia; ip, 12.0 mg/kg/day i.p., days 1, 5 and 9, 1×10^6 P388 cells i.p., CDF1 mice): 165%
COC(=O)C1c2cc3c(c(O)c2C(OC2CC(N(C)C)C(OC4CC(O)C(OC5CCC(O)C(C)O5)C(C)O4)C(C)O2)CC1(O)CC(C)=O)C(=O)c1c(O)cccc1C3=O (stereo not shown) [Sulfurmycin F]																			12.5 µg/mL (≈ 14.8 µM)	MIC (Sarcina lutea IAM1009; Sarcina lutea IAM-1009): 1.56 µg/mL (≈ 1.85 µM); MIC (Bacillus cereus Rol79B): 0.39 µg/mL (≈ 0.463 µM); MIC ([1]; Escherichia coli K-12 IAM-1264, Heart infusion agar): > 50 µg/mL; MIC ([3]; Micrococcus flavus ATCC-10240, Heart infusion agar): 1.56 µg/mL (≈ 1.85 µM); MIC ([5]; Escherichia coli NIHJ IFO-12734, Heart infusion agar): > 50 µg/mL; MIC ([7]; Bacillus subtilis IAM-1027, Heart infusion agar): 3.12 µg/mL (≈ 3.71 µM); MIC ([8]; Candida tropicalis ATCC-13803, Sabouraud dextrose agar): > 50 µg/mL; MIC ([9]; Candida albicans ATCC-10231, Sabouraud dextrose agar): > 50 µg/mL; MIC [10]: 3.12 µg/mL (≈ 3.71 µM)
COC(=O)C1c2cc3c(c(O)c2C(OC2CC(N(C)C)C(OC4CCC(OC5CCC(O)C(C)O5)C(C)O4)C(C)O2)CC1(O)CC(C)=O)C(=O)c1c(O)cccc1C3=O (stereo not shown) [Sulfurmycin G]	12.5 µg/mL (≈ 15.1 µM)													40 to 80 mg/kg	6.25 µg/mL (≈ 7.57 µM)			0.39 µg/mL (≈ 0.472 µM)		response vs control in vivo at 1.5 mg/kg (P388 leukaemia; P388, ip): 104%; response vs control in vivo at 3 mg/kg (P388 leukaemia; P388, ip): 112%; response vs control in vivo at 6 mg/kg (P388 leukaemia; P388, ip): 113%; response vs control in vivo at 12 mg/kg (P388 leukaemia; P388, ip): 123%; response vs control in vivo at 24 mg/kg (P388 leukaemia; P388, ip): 144%; MIC ([11]; IFO12993, read-out: MIC): 12.5 µg/mL (≈ 15.1 µM); MIC ([1]; Escherichia coli, IAM1264): > 50 µg/mL; MIC ([3]; Micrococcus flavus, ATCC10240): 12.5 µg/mL (≈ 15.1 µM); MIC ([5]; Escherichia coli, IFO12734): > 50 µg/mL; MIC ([7]; Bacillus subtilis, IAM1027): 6.25 µg/mL (≈ 7.57 µM); MIC ([8]; Candida tropicalis, ATCC13803): > 50 µg/mL; MIC ([9]; Candida albicans, ATCC10231): > 50 µg/mL
